Experimental data published in US10851116B2, “Bicyclic amines as novel JAK kinase inhibitors” (LEO Pharma A/S, priority 2017, dated 2020).

Key:
Assay type in all cases: biochemical
TYK2 = TYK2 (Homo sapiens (Human), UniProt P29597); experiment: JAK kinase assay (HTRF), TYK2; details: catalytic domain (aa 871-1187), GST-tag, ATP at Km (13 μM)
Procedure: (§1) Human baculovirus-expressed JAK1, 2, 3 and TYK2 were purchased from Carna Biosciences, Inc. All four purified enzymes contain only the catalytic domain. JAK1 (aa 850-1154) and TYK2 (aa 871-1187) are expressed with an N-terminally fused GST-tag, and JAK2 and JAK3 with an N-terminally fused His-tag.
(§2) Inhibition of phosphorylation of a synthetic peptide was measured in an HTRF-based assay using the TK substrate-Biotin from the Cisbio HTRFKinEASE TK kit. First, 2 μl of TK solution (TK substrate-biotin in kinase buffer [1× enzymatic buffer from HTRFKinEASE TK kit, 1 mM DTT]) is added to a plate containing 1 μl prediluted compound (final assay concentration DMSO: 0.75%). Then, 5 μl kinase-ATP mix (prepared in kinase buffer) is added to the wells and the plates are incubated at RT for 20-30 min. For all four kinases a concentration of ATP that corresponded to the Km for ATP was used. The final concentrations of buffers, substrate, kinase and ATP were: JAK1: 50 mM Hepes buffer pH 7.0, 0.01% BSA, 10 mM MgCl2, 1 mM DTT, 7 μM ATP, 50 nM SEB, 1 μM TK Substrate-Biotin and 5 ng JAK1; JAK2: 50 mM Hepes buffer pH 7.0, 0.01% BSA, 5 mM MgCl2, 1 mM DTT, 4 μM ATP, 1 μM TK Substrate-Biotin and 0.1 ng JAK2; JAK3: 50 mM Hepes buffer pH 7.0, 0.01% BSA, 5 mM MgCl2, 1 mM DTT, 2 μM ATP, 1 μM TK Substrate-Biotin and 0.3 ng JAK3; TYK2: 50 mM Hepes buffer pH 7.0, 0.01% BSA, 5 mM MgCl2, 1 mM DTT, 13 μM ATP, 50 nM SEB, 1 μM TK Substrate-Biotin and 0.8 ng TYK2. Thereafter, the kinase reaction is stopped by adding 4 μl detection mix (final concentrations: 50 mM Hepes buffer pH 7.0, 0.01% BSA, 0.8 M KF, 20 mM EDTA, 42 nM Streptavidin-XL665 and 1:400 STK Ab Cryptate) and the plates are incubated overnight in the dark. The HTRF signal is read using an Envision plate reader.

JAK1 = JAK1 (Homo sapiens (Human), UniProt P23458); experiment: JAK kinase assay (HTRF), JAK1; details: catalytic domain (aa 850-1154), GST-tag, ATP at Km (7 μM)
Procedure: as §1, §2

JAK2 = JAK2 (Homo sapiens (Human), UniProt O60674); experiment: JAK kinase assay (HTRF), JAK2; details: catalytic domain, His-tag, ATP at Km (4 μM)
Procedure: as §1, §2

JAK3 = JAK3 (Homo sapiens (Human), UniProt P52333); experiment: JAK kinase assay (HTRF), JAK3; details: catalytic domain, His-tag, ATP at Km (2 μM)
Procedure: as §1, §2

Sequence of JAK2 (O60674 849-1124): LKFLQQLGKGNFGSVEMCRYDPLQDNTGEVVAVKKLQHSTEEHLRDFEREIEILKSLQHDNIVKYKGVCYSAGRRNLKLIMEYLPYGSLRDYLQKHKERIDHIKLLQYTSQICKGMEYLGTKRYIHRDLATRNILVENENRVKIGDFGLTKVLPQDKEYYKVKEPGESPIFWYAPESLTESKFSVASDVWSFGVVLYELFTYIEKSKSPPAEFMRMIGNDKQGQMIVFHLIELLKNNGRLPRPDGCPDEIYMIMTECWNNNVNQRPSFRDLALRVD
Sequence of JAK3 (P52333 822-1111): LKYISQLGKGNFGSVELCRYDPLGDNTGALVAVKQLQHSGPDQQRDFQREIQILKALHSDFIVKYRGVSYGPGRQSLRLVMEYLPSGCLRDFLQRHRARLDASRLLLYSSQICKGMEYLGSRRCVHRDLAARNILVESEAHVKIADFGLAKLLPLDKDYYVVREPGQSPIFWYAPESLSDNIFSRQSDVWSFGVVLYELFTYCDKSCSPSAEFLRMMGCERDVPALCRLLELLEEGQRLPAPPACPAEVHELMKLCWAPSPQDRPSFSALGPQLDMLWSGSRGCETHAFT
Sequence of JAK1 (P23458 850-1154): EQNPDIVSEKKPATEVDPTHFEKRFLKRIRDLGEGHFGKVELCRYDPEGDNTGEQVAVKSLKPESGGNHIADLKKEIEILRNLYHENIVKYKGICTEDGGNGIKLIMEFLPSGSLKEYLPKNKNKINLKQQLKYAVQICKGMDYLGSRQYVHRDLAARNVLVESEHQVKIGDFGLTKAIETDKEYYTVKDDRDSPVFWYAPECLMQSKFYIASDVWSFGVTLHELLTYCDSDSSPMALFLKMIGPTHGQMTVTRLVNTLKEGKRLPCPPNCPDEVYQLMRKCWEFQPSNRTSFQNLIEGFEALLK
Sequence of TYK2 (P29597 871-1187): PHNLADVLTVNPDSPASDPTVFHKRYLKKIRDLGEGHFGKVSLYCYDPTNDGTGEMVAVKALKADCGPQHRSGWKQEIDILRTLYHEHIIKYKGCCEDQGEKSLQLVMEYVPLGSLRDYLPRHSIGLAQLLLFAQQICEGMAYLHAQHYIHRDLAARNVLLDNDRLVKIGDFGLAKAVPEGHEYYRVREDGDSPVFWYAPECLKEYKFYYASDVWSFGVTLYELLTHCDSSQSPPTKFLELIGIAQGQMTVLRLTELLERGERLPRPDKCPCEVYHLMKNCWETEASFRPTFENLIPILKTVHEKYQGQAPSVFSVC

Compound	EC50 (TYK2) [nM]	EC50 (JAK1) [nM]	EC50 (JAK2) [nM]	EC50 (JAK3) [nM]
C[C@]12CN(c3cnc(C#N)cn3)CC[C@H]1CCN(c1ncnc3[nH]ccc13)C2 (racemic) [Example 4, 5-[(4aR*,8aS*)-8a-methyl-7-(7H-pyrrolo[2,3-d]pyrimidin-4-yl)-3,4,4a,5,6,8-hexahydro-1H-2,7-naphthyridin-2-yl]pyrazine-2-carbonitrile]	148	4	25	4
C[C@]12CN(c3ccc(C#N)cn3)CC[C@H]1CCN(c1ncnc3[nH]ccc13)C2 (racemic) [Example 5, 6-[(4aR*,8aS*)-8a-methyl-7-(7H-pyrrolo[2,3-d]pyrimidin-4-yl)-3,4,4a,5,6,8-hexahydro-1H-2,7-naphthyridin-2-yl]pyridine-3-carbonitrile]	453	10	80	7
C[C@]12CN(c3ccc(C#N)nn3)CC[C@H]1CCN(c1ncnc3[nH]ccc13)C2 (racemic) [Example 6, 6-[(4aR*,8aS*)-8a-methyl-7-(7H-pyrrolo[2,3-d]pyrimidin-4-yl)-3,4,4a,5,6,8-hexahydro-1H-2,7-naphthyridin-2-yl]pyridazine-3-carbonitrile]	634	17	64	9
C[C@]12CN(c3ncc(C#N)cn3)CC[C@H]1CCN(c1ncnc3[nH]ccc13)C2 (racemic) [Example 7, 2-[(4aR*,8aS*)-8a-methyl-7-(7H-pyrrolo[2,3-d]pyrimidin-4-yl)-3,4,4a,5,6,8-hexahydro-1H-2,7-naphthyridin-2-yl]pyrimidine-5-carbonitrile]	740	46	140	5
C[C@@]12CN(c3ncnc4[nH]ccc34)CC[C@@H]1CCN(S(N)(=O)=O)C2 (racemic) [Example 9, (4aR*,8aS*)-8a-methyl-7-(7H-pyrrolo[2,3-d]pyrimidin-4-yl)-3,4,4a,5,6,8-hexahydro-1H-2,7-naphthyridine-2-sulfonamide]	241	39	58	8
Cc1nc(N2CC[C@H]3CCN(c4ncnc5[nH]ccc45)C[C@@]3(C)C2)ccc1C#N (racemic) [Example 10, 6-[(4aS*,8aR*)-8a-methyl-7-(7H-pyrrolo[2,3-d]pyrimidin-4-yl)-3,4,4a,5,6,8-hexahydro-1H-2,7-naphthyridin-2-yl]-2-methyl-pyridine-3-carbonitrile]	3880	112	469	204
Cc1cc(C#N)cnc1N1CC[C@H]2CCN(c3ncnc4[nH]ccc34)C[C@@]2(C)C1 (racemic) [Example 11, 6-[(4aS*,8aR*)-8a-methyl-7-(7H-pyrrolo[2,3-d]pyrimidin-4-yl)-3,4,4a,5,6,8-hexahydro-1H-2,7-naphthyridin-2-yl]-5-methyl-pyridine-3-carbonitrile]	976	86	380	85
C[C@@]12CN(c3ncnc4[nH]ccc34)CC[C@@H]1CCN(S(C)(=O)=O)C2 (racemic) [Example 13, (4aR*,8aS*)-8a-methyl-2-methylsulfonyl-7-(7H-pyrrolo[2,3-d]pyrimidin-4-yl)-3,4,4a,5,6,8-hexahydro-1H-2,7-naphthyridine]	326	72	90	75
C[C@@]12CN(c3ncnc4[nH]ccc34)CC[C@@H]1CN(S(C)(=O)=O)C2 (racemic) [Example 26, 4-[(3aS*,7aS*)-3a-methyl-2-methylsulfonyl-1,3,4,6,7,7a-hexahydropyrrolo[3,4-c]pyridin-5-yl]-7H-pyrrolo[2,3-d]pyrimidine]	898	93	154	243
C[C@@]12CN(c3ncnc4[nH]ccc34)CC[C@@H]1CN(S(N)(=O)=O)C2 (racemic) [Example 27, (3aS*,7aS*)-3a-methyl-5-(7H-pyrrolo[2,3-d]pyrimidin-4-yl)-1,3,4,6,7,7a-hexahydropyrrolo[3,4-c]pyridine-2-sulfonamide]	473	40	80	54
C[C@@]12CN(c3ncnc4[nH]ccc34)CC[C@@H]1CN(S(=O)(=O)NCC#N)C2 (racemic) [Example 30, (3aS*,7aS*)—N-(cyanomethyl)-3a-methyl-5-(7H-pyrrolo[2,3-d]pyrimidin-4-yl)-1,3,4,6,7,7a-hexahydropyrrolo[3,4-c]pyridine-2-sulfonamide]	364	29	56	91
C[C@@]12CN(c3ncnc4[nH]ccc34)CC[C@@H]1CN(S(=O)(=O)CC(F)(F)F)C2 (racemic) [Example 31, 4-[(3aS*,7aS*)-3a-methyl-2-(2,2,2-trifluoroethylsulfonyl)-1,3,4,6,7,7a-hexahydropyrrolo[3,4-c]pyridin-5-yl]-7H-pyrrolo[2,3-d]pyrimidine]	3180	133	455	274
C[C@]12CN(C(=O)CC#N)C[C@H]1CCN(c1ncnc3[nH]ccc13)C2 (racemic) [Example 32, 3-[(3aS*,7aS*)-3a-methyl-5-(7H-pyrrolo[2,3-d]pyrimidin-4-yl)-1,3,4,6,7,7a-hexahydropyrrolo[3,4-c]pyridin-2-yl]-3-oxo-propanenitrile]	307	16	67	162
C[C@]12CN(c3ccc(S(C)(=O)=O)cn3)C[C@H]1CCN(c1ncnc3[nH]ccc13)C2 (racemic) [Example 35]	2440	13	131	95
C[C@]12CN(c3ncccc3CO)C[C@H]1CCN(c1ncnc3[nH]ccc13)C2 (racemic) [Example 36, [2-[(3aS*,7aS*)-3a-methyl-5-(7H-pyrrolo[2,3-d]pyrimidin-4-yl)-1,3,4,6,7,7a-hexahydropyrrolo[3,4-c]pyridin-2-yl]-3-pyridyl]methanol]	1110	69	120	235
C[C@]12CN(c3ncc(Br)cc3CO)C[C@H]1CCN(c1ncnc3[nH]ccc13)C2 (racemic) [Example 37, [2-[(3aS*,7aS*)-3a-methyl-5-(7H-pyrrolo[2,3-d]pyrimidin-4-yl)-1,3,4,6,7,7a-hexahydropyrrolo[3,4-c]pyridin-2-yl]-5-bromo-3-pyridyl]methanol]	611	12	48	38
C[C@]12CN(c3ccc(S(C)(=O)=O)cc3)C[C@H]1CCN(c1ncnc3[nH]ccc13)C2 (racemic) [Example 38, 4-[(3aR*,7aS*)-3a-methyl-2-(4-methylsulfonylphenyl)-1,3,4,6,7,7a-hexahydropyrrolo[3,4-c]pyridin-5-yl]-7H-pyrrolo[2,3-d]pyrimidine]	335	7	32	71
C[C@]12CN(c3ccncn3)C[C@H]1CCN(c1ncnc3[nH]ccc13)C2 (racemic) [Example 39, 4-[(3aR*,7aS*)-3a-methyl-2-pyrimidin-4-yl-1,3,4,6,7,7a-hexahydropyrrolo[3,4-c]pyridin-5-yl]-7H-pyrrolo[2,3-d]pyrimidine]	775	18	72	199
C[C@]12CN(c3ncc(C#N)cn3)C[C@H]1CCN(c1ncnc3[nH]ccc13)C2 (racemic) [Example 41, 2-[(3aS*,7aS*)-3a-methyl-5-(7H-pyrrolo[2,3-d]pyrimidin-4-yl)-1,3,4,6,7,7a-hexahydropyrrolo[3,4-c]pyridin-2-yl]pyrimidine-5-carbonitrile]	2040	49	216	70
Cc1cc(C#N)cnc1N1C[C@H]2CCN(c3ncnc4[nH]ccc34)C[C@@]2(C)C1 (racemic) [Example 44]	2020	65	179	99
